Measured values taken from paper PMC10124120 (European journal of medicinal chemistry, 2023).
Values belong to the molecule of their own block, whether it stands above or below them.

Experiments:
SLC26A4 = biological target: T1, SLC26A4 (Homo sapiens, UniProt O43511); assay: YFP-based selectivity assay, SLC26A4; type: cell-based; conditions: for inhibition at 10 µM: read-out: % Inhibition SLC26A4
T1 sequence (O43511 1-780): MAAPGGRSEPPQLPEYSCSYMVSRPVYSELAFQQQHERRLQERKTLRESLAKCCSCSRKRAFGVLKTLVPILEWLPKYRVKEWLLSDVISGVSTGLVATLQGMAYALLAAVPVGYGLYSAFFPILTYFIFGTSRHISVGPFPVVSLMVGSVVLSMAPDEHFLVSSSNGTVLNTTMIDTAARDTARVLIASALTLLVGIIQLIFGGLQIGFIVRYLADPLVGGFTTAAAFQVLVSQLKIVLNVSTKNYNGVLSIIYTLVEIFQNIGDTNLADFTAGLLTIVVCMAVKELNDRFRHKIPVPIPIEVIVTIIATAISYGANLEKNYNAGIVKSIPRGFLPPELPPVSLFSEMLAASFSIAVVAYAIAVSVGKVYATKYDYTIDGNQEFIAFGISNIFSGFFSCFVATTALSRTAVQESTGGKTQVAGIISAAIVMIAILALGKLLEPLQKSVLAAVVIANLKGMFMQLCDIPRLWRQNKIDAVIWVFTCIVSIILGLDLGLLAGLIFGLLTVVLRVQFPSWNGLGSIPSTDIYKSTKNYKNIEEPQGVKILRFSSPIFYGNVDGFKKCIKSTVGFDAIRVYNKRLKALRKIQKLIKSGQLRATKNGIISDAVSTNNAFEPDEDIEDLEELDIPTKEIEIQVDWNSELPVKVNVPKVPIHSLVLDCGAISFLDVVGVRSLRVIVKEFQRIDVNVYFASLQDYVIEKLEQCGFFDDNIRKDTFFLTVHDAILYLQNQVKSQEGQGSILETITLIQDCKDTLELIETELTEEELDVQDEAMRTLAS

TMEM16A = assay: YFP-based selectivity assay, TMEM16A; type: cell-based; conditions: 10 μM, mean ± S.E.M., n = 6–8
SLC26A3 = biological target: T2, SLC26A3 (Mus musculus, UniProt Q9WVC8); assay: Kinetic studies of inhibitor action; type: cell-based, murine; conditions: from kinetics of inhibition onset and washout
T2 sequence (Q9WVC8 1-757): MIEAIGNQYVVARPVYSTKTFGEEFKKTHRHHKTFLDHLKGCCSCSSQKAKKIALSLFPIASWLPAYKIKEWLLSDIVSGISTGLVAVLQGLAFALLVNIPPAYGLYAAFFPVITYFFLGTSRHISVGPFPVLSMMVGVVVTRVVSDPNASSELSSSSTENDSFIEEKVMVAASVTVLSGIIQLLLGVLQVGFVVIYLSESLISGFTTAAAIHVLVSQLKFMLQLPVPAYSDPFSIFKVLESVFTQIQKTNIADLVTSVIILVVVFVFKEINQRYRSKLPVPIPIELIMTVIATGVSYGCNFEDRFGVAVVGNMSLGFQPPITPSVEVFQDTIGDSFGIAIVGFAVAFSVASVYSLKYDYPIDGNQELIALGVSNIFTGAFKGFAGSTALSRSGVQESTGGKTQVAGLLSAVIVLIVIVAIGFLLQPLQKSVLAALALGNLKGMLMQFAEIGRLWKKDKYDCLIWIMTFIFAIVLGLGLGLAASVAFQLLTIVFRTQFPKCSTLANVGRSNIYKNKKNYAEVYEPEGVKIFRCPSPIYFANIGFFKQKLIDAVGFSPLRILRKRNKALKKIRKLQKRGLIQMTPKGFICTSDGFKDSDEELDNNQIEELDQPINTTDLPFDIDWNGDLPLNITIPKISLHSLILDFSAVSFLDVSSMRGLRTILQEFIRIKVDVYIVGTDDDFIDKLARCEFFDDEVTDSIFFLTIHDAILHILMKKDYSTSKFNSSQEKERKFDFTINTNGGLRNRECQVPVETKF

[1] = test system: loperamide-induced constipation; assay: Loperamide-induced model of constipation in mice; type: in vivo, CD1 mice
[2] = test system: loperamide-induced constipation; conditions: mouse model of constipation produced by loperamide; cited from earlier work
[3] = test system: absorption of fluid and oxalate from the loop lumen; conditions: closed colonic loops in mice; cited from earlier work
[4] = test system: hyperoxaluria and oxalate nephropathy; conditions: mice orally loaded with oxalate; cited from earlier work
[5] = loperamide-treated mice (0.3 mg/kg ip), 10 mg/kg oral gavage, vs vehicle
[6] = loperamide 0.3 mg/kg intraperitoneal

- inhibition at 10 µM (SLC26A4): -14 ± 19%
SMILES: O=C(Nc1ccccc1C(=O)O)c1ccc2c(c1)C(=O)N(c1ccc(Cl)cc1)C2=O [Compound 1a]

SMILES: Cc1cc(C)cc(N(C)S(=O)(=O)c2nnc(NC(=O)COc3ccc(C)c(C)c3)s2)c1 [Compound 2a]
- % Inhibition TMEM16A (TMEM16A): > 80%

- site of action (SLC26A3): Extracellular
- inhibition at 10 µM (SLC26A4): -13 ± 23%
SMILES: O=c1cc(COc2ccccc2Cl)nc2scc(-c3ccccc3)n12 [Compound 3a, 7-(2-chloro-phenoxymethyl)-3-phenyl-thiazolo [3,2-a]pyrimidin-5-one]
- number of pellets [1, 5]: significantly increased
- stool weight [1, 5]: significantly increased

- site of action (SLC26A3): Extracellular
- inhibition at 10 µM (SLC26A4): -13 ± 21%
SMILES: Cc1ccccc1COc1ccc2oc(-c3ccccc3)c(C(=O)O)c2c1 [Compound 4a]

- activity against SLC26A4 (in words) (SLC26A4): active
SMILES: COC(=O)c1c(C)oc2ccc(OC(=O)COCc3ccccc3)cc12 [Compound 4h]

- site of action (SLC26A3): intracellular
SMILES: Cc1c(CC(=O)O)c(=O)oc2c(C)c(OCc3cccc(I)c3)ccc12 [DRAinh-A270, [7-(3-iodobenzyloxy)-4,8-dimethylcoumarin]-3-acetic acid]
- improving stool output and hydration [2]: effective
- absorption of fluid and oxalate from the loop lumen [3]: inhibited
- preventing hyperoxaluria and oxalate nephropathy [4]: effective

SMILES: CN(C)C(=O)C(CCN1CCC(O)(c2ccc(Cl)cc2)CC1)(c1ccccc1)c1ccccc1 [Loperamide, loperamide, reference compound]
- reduced pellet number compared to control mice [1, 6]: > 90%
- reduced stool weight compared to control mice [1, 6]: > 90%
